Source: US7740882B2, “Enhanced oral and transcompartmental delivery of therapeutic or diagnostic agents” (priority 2001, dated 2010)
Entries after “also recorded” stand apart in the source; their conditions may differ. Where two headings read alike, the source gives them in different places. Non-standard residues stand in square brackets, D forms with d.

Assays:
[1] = target: T1, SMVT (Homo sapiens, UniProt Q9Y289); test: Inhibition of substrate uptake in CHO/hSMVT cells by 50 μM SMVT substrates; format: in vitro ADME; design: expressed in transfected cells; host or cells: CHO cells (ATCC), transient Lipofectamine transfection; plasmid was a gift of Dr. Puttur D. Prasad
T1 sequence (Q9Y289 1-635): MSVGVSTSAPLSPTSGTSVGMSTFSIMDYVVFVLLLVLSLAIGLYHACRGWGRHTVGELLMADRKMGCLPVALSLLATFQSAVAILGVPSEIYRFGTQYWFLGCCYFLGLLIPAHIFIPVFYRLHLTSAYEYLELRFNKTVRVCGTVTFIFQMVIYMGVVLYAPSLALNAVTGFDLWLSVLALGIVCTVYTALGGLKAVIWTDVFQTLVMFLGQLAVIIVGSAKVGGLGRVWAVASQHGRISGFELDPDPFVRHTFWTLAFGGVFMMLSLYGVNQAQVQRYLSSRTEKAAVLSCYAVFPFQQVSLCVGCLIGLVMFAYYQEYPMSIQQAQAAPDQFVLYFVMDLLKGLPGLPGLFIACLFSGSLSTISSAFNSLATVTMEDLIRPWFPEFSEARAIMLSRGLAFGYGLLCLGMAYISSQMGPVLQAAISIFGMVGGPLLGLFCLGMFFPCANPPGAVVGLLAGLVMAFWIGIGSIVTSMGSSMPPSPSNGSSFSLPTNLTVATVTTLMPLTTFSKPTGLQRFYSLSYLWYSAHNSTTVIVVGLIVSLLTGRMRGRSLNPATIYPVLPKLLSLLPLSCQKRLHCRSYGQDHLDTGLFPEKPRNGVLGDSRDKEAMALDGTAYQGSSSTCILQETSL

[2] = target: T1, SMVT; details: read-out: Ki, competitive inhibition of RI-K(biotin)-Tat9 transport; Caco-2, inhibitors at 10 and 20 μM
Excerpt: [formula] where Pe is the effective permeability of the substrate transported, Cs is the substrate concentration and Pm and Pc represent the passive and carrier-mediated component of the permeability. All data were initially fitted to a 3-parameter model (Pc, Pm, Km for Caco-2 studies, Jmax, Pm, Km for CHO studies). […] The data from inhibition studies were transformed into Lineweaver-Burke plots to determine the nature of the inhibition process (competitive, non-competitive). Subsequently, the inhibition constant (Ki) values were estimated using Dixon plots. Data used for the above plots were weighted using 1/SEM^2 (S.E.M=Standard Error of Mean). The kinetic parameters for CHO cell studies were estimated by performing non-linear regression using the equation J=Jmax*[C]/(Km+[C])+Pm*C, where J is the rate of permeant uptake, Pm is the passive uptake component and [C] is the substrate concentration. Data were weighted using 1/S.E.M^2.

[3] = target: T1, SMVT; details: read-out: Ki, competitive inhibition of biotin-PEG-3400 transport; Caco-2, inhibitors at 10 and 20 μM
Excerpt: Data Analysis. The Michaelis-Menten kinetic parameters for the Caco-2 cell monolayer transport studies were estimated by performing weighted non-linear regression with Scientist software (MicroMath, Utah) using the following equation: Pe=Pm+Pc/(1+C/Km), where Pe is the effective permeability of the substrate transported, C is the substrate concentration and Pm and Pc represent the passive and carrier-mediated component of the permeability. The data from inhibition studies were transformed into Lineweaver-Burke plots to determine the nature of the inhibition process (competitive, non-competitive). […] Data used for the above plots were weighted using 1/S.E.M.^2. The kinetic parameters for CHO cell studies were estimated by performing non-linear regression using the equation J=Jmax*[C]/(Km+[C]), where J is the rate of permeant uptake, Jmax is the maximal uptake velocity and [C] is the substrate concentration. Data were weighted using 1/S.E.M.^2. Statistical analyses were performed using Jandel SigmaStat, version 2.03. One-way analysis of variance was used to test the difference in the mean values of uptake using p<0.05 as the significance level for all tests.

[4] = system: superoxide production; details: literature value; read-out: EC50 for superoxide production (Klinker et al., 1996); cited from earlier work
[5] = system: CHO/pSPORT cells; test: Non-specific uptake in vector-transfected control CHO/pSPORT cells
Procedure: CHO Cell Uptake Studies CHO cells transiently transfected with hSMVT (CHO/hSMVT) were washed twice with 25 mM uptake buffer, containing 25 mM Hepes/Tris pH 7.5, 140 mM NaCl, 5.4 mM KCl, 1.8 CaCl2, 0.8 mM MgSO4 and 5 mM glucose, approximately 48 hours post-transfection. Subsequently, the cells were incubated with the permeant at 37° C. for 10 minutes. Uptake was stopped by washing the cells thrice with ice-cold buffer. Non-specific uptake was measured in parallel experiments with the control pSPORT vector-transfected CHO cells. Finally, the cells were solubilized by 0.1% v/v Triton X-100, and 0.6 ml was used for scintillation counting. […] Bovine serum albumin was used as the standard.
CHO Cell Uptake Studies CHO cells transiently transfected with hSMVT were washed twice with 25 mM uptake buffer, containing 25 mM Hepes/Tris pH 7.5, 140 mM NaCl, 5.4 mM KCl, 1.8 CaCl2, 0.8 mM MgSO4 and 5 mM glucose. […] Non-specific uptake was measured in parallel experiments with the control pSPORT vector-transfected CHO cells. […] From the remaining volume, 10 μl of solution was taken from each well and protein concentration was determined using the Bio-Rad reagent according to the manufacturer's instructions. […]
CHO Cell Uptake Studies. […] Non-specific uptake was measured in parallel experiments with the control pSPORT vector-transfected CHO cells. […]

[6] = system: bovine brain microvessel endothelial cells (BBMECs); test: Transport (permeability) across BBMEC monolayers, in vitro BBB model
Procedure: Non-biotinylated PEGs were used in the control studies.
Isolation and culture of BBMECs. Bovine Brain Microvessel Endothelial Cells (BBMECs) were used as an in vitro model of BBB. BBMECs were isolated from bovine brain by a two-step enzymatic method and the cells were cultured on collagen coated Transwell™ plates or polystyrene plates in an atmosphere of 95% air and 5% CO2 at 37° C. Transendothelial electrical resistance (TEER) and several molecular markers were used to validate the integrity of the cell culture system.
The cells were cultured on 12-well Transwell™ filters for 7-8 days and transport was evaluated. […] All studies were performed at 37° C.

[7] = target: T2, human sodium dependent multivitamin transporter, hSMVT (Homo sapiens, UniProt Q9Y289); test: Uptake in CHO cells transiently transfected with hSMVT (CHO/hSMVT); details: not concentration dependent controls
T2 sequence (Q9Y289 1-635): T1 sequence (Q9Y289 1-635)
Procedure: (§1) CHO Cell Uptake Studies CHO cells transiently transfected with hSMVT (CHO/hSMVT) were washed twice with 25 mM uptake buffer, containing 25 mM Hepes/Tris pH 7.5, 140 mM NaCl, 5.4 mM KCl, 1.8 CaCl2, 0.8 mM MgSO4 and 5 mM glucose, approximately 48 hours post-transfection. Subsequently, the cells were incubated with the permeant at 37° C. for 10 minutes. Uptake was stopped by washing the cells thrice with ice-cold buffer. Non-specific uptake was measured in parallel experiments with the control pSPORT vector-transfected CHO cells. Finally, the cells were solubilized by 0.1% v/v Triton X-100, and 0.6 ml was used for scintillation counting. From the remaining volume, 10 μl of solution was taken from each well and protein concentration was determined using the Bio-Rad reagent according to the Bradford technique [M. Bradford, A rapid and sensitive method of quantitation of microgram quantities of protein utilizing the principle of protein-dye binding, Anal. Biochem. 72 (1976) 248]. Bovine serum albumin was used as the standard.
Parallel uptake experiments were performed using CHO/pSPORT control cells.
as §1, with “hSMVT” for “hSMVT (CHO/hSMVT)”, “glucose.” for “glucose, approximately 48 hours post-transfection.”, “Washing” for “Uptake was stopped by washing”, “three times” for “thrice”, “buffer stopped drug uptake.” for “buffer.”, “manufacturer's instructions.” for “Bradford technique [M. Bradford, A rapid and sensitive method of quantitation of microgram quantities of protein utilizing the principle of protein-dye binding, Anal. Biochem. 72 (1976) 248].”
as §1, with “Studies.” for “Studies”, “glucose.” for “glucose, approximately 48 hours post-transfection.”, “manufacturer's instructions.” for “Bradford technique [M. Bradford, A rapid and sensitive method of quantitation of microgram quantities of protein utilizing the principle of protein-dye binding, Anal. Biochem. 72 (1976) 248].”

[8] = system: Caco-2 cell monolayers
[9] = system: differentiated HL-60 cells; test: Intracellular calcium assay (45Ca release from intracellular stores); format: cell-based, human; details: differentiated HL-60 cells, calcium release; read-out: Cell Activation EC50
Procedure: Intracellular Calcium Assay. HL-60 cells (2×10^5 cells/mL) were grown in the presence of 1.3% DMSO for 5 days. For each time course experiment, 2×10^6 cells were resuspended in 5 mL of HBSS containing 2 mCi/mL of ^45CaCl2 as the sole source of calcium. After 90 min incubation at 37° C., cells were washed twice as above with cold HBSS. […] Cell pellets were treated with 0.5% Triton X-100/0.1 M NaOH and centrifuged in tubes containing 0.3 mL of 10% sucrose and radioactivity associated with the pellets was measured; this represents vesicle-associated ^45Ca. The top portion of the tube, which contained the cytoplasmic ^45Ca was also measured.

[10] = system: Jurkat T-cells; test: Uptake of DIG conjugates by Jurkat cells (DIG ELISA); format: cell-based, human; details: 333 nM, 30 min
Procedure: (§2) Uptake by HL-60, Jurkat and Peritoneal Cells. Human Jurkat T-cell growth conditions were the same as for HL-60 cells, except that the subcultivation ratio was 1:3. Jurkat cells (2×10^5) or fully differentiated HL-60 cells were washed twice with PBS and incubated in binding buffer (see above) with conjugate for 30 min at 37° C. Each conjugate (1 μg, dissolved at a concentration of 333 nM) was used in these experiments. Cells were lysed, the membranes and cell debris were removed by centrifugation (5 min. at 14,000×g) and the enzyme-linked immunosorbent assay (ELISA) for DIG was performed on the supernatant as described below. In order to study primary peritoneal cells, BALB/c mice were injected in the peritoneal cavity with 5 μg of PEG/A-DIG4-fMLF4 (n=3 mice), or PEG/A-DIG4 (n=4 mice). After 1 h, the cavity was flushed with medium and cells were collected and washed twice with cold PBS, as described above.
(§3) Cells were resuspended in 100 μL of PBS, containing 0.6% Tween 20, vortexed briefly and kept on ice for 30 min. […] Uptake of DIG was determined by ELISA of the supernatant. […] DIG content was proportional to the difference in absorbance at 495 nm and 450 nm. […] In order to account for the potential different amounts of peritoneal cells from each mouse, the results were normalized to the amount of protein, as measured with the Bradford assay (BioRad, Hercules Calif.).

[11] = system: differentiated HL-60 cells; test: Uptake of DIG conjugates by differentiated HL-60 cells (DIG ELISA); format: cell-based, human; details: 333 nM, 30 min, 37° C.
Procedure: as §2, §3

[12] = target: T3, fMLF receptor on differentiated HL-60 cells (Homo sapiens, UniProt P21462); test: Competitive receptor binding assay with fML[3H]F
T3 construct: endogenous in cells; host or cells: HL-60 cells differentiated with 1.3% DMSO for 48 h; whole cells
T3 sequence (P21462 1-350): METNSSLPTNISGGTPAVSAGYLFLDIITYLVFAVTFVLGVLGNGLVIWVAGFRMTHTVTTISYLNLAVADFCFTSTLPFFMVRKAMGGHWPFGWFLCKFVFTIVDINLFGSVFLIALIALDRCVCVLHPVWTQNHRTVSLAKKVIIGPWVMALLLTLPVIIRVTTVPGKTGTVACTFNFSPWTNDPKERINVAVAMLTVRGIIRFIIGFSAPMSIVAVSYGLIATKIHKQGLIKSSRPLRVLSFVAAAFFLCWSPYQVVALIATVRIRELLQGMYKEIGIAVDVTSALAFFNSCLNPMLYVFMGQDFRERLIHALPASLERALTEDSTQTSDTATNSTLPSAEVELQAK
Procedure: Competitive Receptor Binding Assay. HL-60 cells were propagated in RPMI 1640 supplemented with 2 mM L-glutamine and 10% (v/v) heat-inactivated fetal bovine serum, and were subcultured every 3 days at a ratio of 1:4. Cells were grown at 37° C. in an atmosphere of 5% CO2. Dimethyl sulfoxide (DMSO, 1.3%) was added to the culture (3×10^5 cells/mL) 48 h before the binding assay to initiate cellular differentiation. […] The cells were incubated for 15 min at 37° C. with gentle shaking. They were collected by centrifugation at 3,000 g for 5 min at room temperature. The supernatant was removed and cells were resuspended in 0.1 mL of binding buffer and carefully added to the very top of tubes (Denville Scientific, South Plainfield, N.J., catalog #C19002) that contained 0.3 mL of 10% sucrose. They were centrifuged for 5 min. The cells settled to the bottom and any unbound ligand remained in the middle of the tube. The tubes were placed in dry ice for 5 min, and then their bottoms were cut off to collect the cells. Cell-bound and free radioactivity were determined by liquid scintillation counting.

[13] = system: peritoneal cells (macrophages); test: Uptake by peritoneal cells after intraperitoneal injection (DIG ELISA); format: in vivo, BALB/c mice
Procedure: as §2, §3

With `N[C@@H](CCCCNC(=O)CCCC[C@@H]1SC[C@@H]2NC(=O)N[C@@H]21)C(=O)O` [biocytin] the “inhibition of RI-K(biotin)-Tat9 uptake” value ([1]; 0.1 μM RI-K(biotin)-Tat9, inhibitor 50 μM) was “significantly inhibited; also recorded: significantly lowered (p<0.001)”, the “inhibition of biotin-PEG-3400 uptake” value ([1]; 0.1 μM biotin-PEG-3400, inhibitor 50 μM) was “significantly (p<0.01) inhibited” and the “inhibition of PEG:(RI-K(biotin)-Tat9)8 uptake” value ([1]; 0.1 μM conjugate, inhibitor 50 μM) was “significantly lower (p<0.05)”. For the same compound, the Ki [2] was 3.27 µM and the Ki [3] was 14 µM.

In the case of `CSCC[C@H](NC=O)C(=O)N[C@@H](CC(C)C)C(=O)N[C@@H](Cc1ccccc1)C(=O)O` [fMLF, N-formyl-methionine-leucine-phenylalanine], the EC50 [4] is listed as 0.015 to 0.03 µM.

For “N-acetyl-D-Lys-D-Arg-D-Arg-D-Arg-D-Gln-D-Arg-D-Arg-D-Lys-D-Lys-D-Arg-NH2 (Ac-[dK][dR][dR][dR][dQ][dR][dR][dK][dK][dR]-NH2; SMILES CC(=O)N[C@H](CCCCN)C(=O)N[C@H](CCCNC(=N)N)C(=O)N[C@H](CCCNC(=N)N)C(=O)N[C@H](CCCNC(=N)N)C(=O)N[C@H](CCC(N)=O)C(=O)N[C@H](CCCNC(=N)N)C(=O)N[C@H](CCCNC(=N)N)C(=O)N[C@H](CCCCN)C(=O)N[C@H](CCCCN)C(=O)N[C@H](CCCNC(=N)N)C(N)=O) [RI-K-Tat9]”, the “uptake in CHO/pSPORT cells” value [5] was under 1 pmol/mg protein/10 min, the “Papp” value [6] was 73 nm/s and the “uptake in CHO/hSMVT cells” value [7] was under 1 pmol/mg protein/10 min.

In the case of PEG-3350 [reference compound], the “absorptive/effective permeability (Pe)” value [8] is reported as about 10 nm/s.

For “PEG/A-fMLF4-DIG4: linear PEG-aspartate copolymer bearing four fMLF and four digoxigenin residues”, the EC50 [9] was 0.0059 µM, the conjugate accumulated [10] was 1.3% and the “conjugate bound and/or internalized” value [11] was 18%. For the same compound, the Kd ([12]; Kd multiplied by average number of fMLF moieties, read-out: Relative Avidity Kd/fMLP) was 0.0048 µM, the Kd ([12]; differentiated HL-60 cells, competition with fML[3H]F, read-out: Avidity Kd) was 0.0012 µM and the “Avidity Activation EC50/Kd” value ([12]; ratio of EC50 (calcium) to Kd) was 4.92. For the same compound, the “administered conjugate taken up by peritoneal cells” value ([13]; BALB/c mice, 5 μg i.p., 1 h) was 17% and the “DIG accumulation, fold over non-targeted conjugate PEG/A-DIG8” value ([13]; non-activated peritoneal cells) was about 5 fold.
